Test results as given in the NIST ThermoML archive (doi:10.1021/je034053i).

Assays:
[1] = xn = mol fraction of the nth substance listed; settings: 298.15 K, Drop volume
[2] = refractive index (Na D-line) (dimensionless); xn = mol fraction of the nth substance listed; settings: 298.15 K, 101.3 kPa, Liquid, Standard Abbe refractometry
[3] = 298.15 K; for surface tension liquid-gas: Drop volume; for mass density: 101.33 kPa, Liquid
[4] = refractive index (Na D-line) (dimensionless); settings: 298.15 K; 101.33 kPa; Liquid; Standard Abbe refractometry

CCCCCO [pentan-1-ol] + CCCCCCCC
Settings	refractive index, [2]	surface tension liquid-gas, [1] [mN/m]
x2 = 0.0189	1.4075	–
x2 = 0.115	1.4058	23.88
x2 = 0.1459	1.4052	23.6
x2 = 0.1629	1.4049	23.5
x2 = 0.2727	1.403	22.8
x2 = 0.3271	1.4022	22.54
x2 = 0.4586	1.4003	22.06
x2 = 0.4927	1.3999	21.96
x2 = 0.5188	1.3996	21.91
x2 = 0.5951	1.3986	21.75
x2 = 0.655	1.3979	21.65
x2 = 0.6713	1.3977	21.63
x2 = 0.7676	1.3968	21.5
x2 = 0.7932	1.3966	21.46
x2 = 0.834	1.3963	21.41
x2 = 0.8869	1.3958	21.35
x2 = 0.9457	1.3955	21.27

CCCO [propan-1-ol]
Settings	mass density [kg/m3]	refractive index	surface tension liquid-gas [mN/m]
[3]	799.62	–	23.39
[4]	–	1.383	–

CCCCCO [pentan-1-ol]
Settings	mass density [kg/m3]	refractive index	surface tension liquid-gas [mN/m]
[3]	810.83	–	24.97
[4]	–	1.408	–

CCCCCCO [hexan-1-ol]
Settings	mass density [kg/m3]	refractive index	surface tension liquid-gas [mN/m]
[3]	815.15	–	25.73
[4]	–	1.4159	–

CCCCCCCC [octane] + CCCCO
Settings	refractive index, [2]	surface tension liquid-gas, [1] [mN/m]
x1 = 0.0453	1.397	23.65
x1 = 0.113	1.3966	23.15
x1 = 0.1636	1.3964	22.84
x1 = 0.1788	1.3963	22.74
x1 = 0.2956	1.3957	22.2
x1 = 0.3281	–	22.08
x1 = 0.3526	1.3955	21.99
x1 = 0.4467	1.3952	21.73
x1 = 0.4857	1.3951	21.65
x1 = 0.5747	1.3949	21.49
x1 = 0.5886	–	21.49
x1 = 0.6326	1.3948	21.42
x1 = 0.6918	1.3948	21.36
x1 = 0.777	1.3948	21.29
x1 = 0.8167	1.3948	21.28
x1 = 0.865	1.3948	21.24
x1 = 0.9376	1.3949	21.21

CCCCCCCCO [octan-1-ol]
Settings	mass density [kg/m3]	refractive index	surface tension liquid-gas [mN/m]
[3]	821.63	–	27.13
[4]	–	1.4274	–

CCCCCCCCO [octan-1-ol] + CCCCCCCC
Settings	refractive index, [2]	surface tension liquid-gas, [1] [mN/m]
x2 = 0.0641	1.4257	26.39
x2 = 0.12	–	25.83
x2 = 0.1378	1.4231	25.59
x2 = 0.1501	–	25.5
x2 = 0.2923	1.418	24.29
x2 = 0.3168	1.4172	24.11
x2 = 0.3554	1.4159	23.84
x2 = 0.4526	1.4128	23.23
x2 = 0.495	1.4114	23
x2 = 0.5413	1.41	22.76
x2 = 0.6269	1.4072	22.38
x2 = 0.6566	1.4062	22.24
x2 = 0.6897	1.4051	22.12
x2 = 0.7547	1.403	21.88
x2 = 0.8114	1.4012	21.7
x2 = 0.8617	1.3995	21.55
x2 = 0.8832	1.3989	21.51
x2 = 0.9635	1.3961	–

CCCCCCCC [octane]
Settings	mass density [kg/m3]	refractive index	surface tension liquid-gas [mN/m]
[3]	698.5	–	21.17
[4]	–	1.3951	–

CCCCCCO [hexan-1-ol] + CCCCCCCC
Settings	refractive index, [2]	surface tension liquid-gas, [1] [mN/m]
x2 = 0.0515	1.4147	25.19
x2 = 0.0944	1.4136	24.79
x2 = 0.16	1.4119	24.22
x2 = 0.1837	1.4113	24.03
x2 = 0.2785	1.4091	23.38
x2 = 0.3309	–	23.08
x2 = 0.3311	1.4079	–
x2 = 0.4619	1.4049	22.48
x2 = 0.4987	1.404	22.32
x2 = 0.5049	1.4039	22.3
x2 = 0.5984	1.402	22.02
x2 = 0.6717	1.4007	21.83
x2 = 0.7019	1.4	21.74
x2 = 0.7478	1.3992	21.65
x2 = 0.7794	1.3987	21.58
x2 = 0.8504	1.3974	21.45
x2 = 0.895	1.3966	21.38
x2 = 0.959	1.3956	21.25
